Patent US20130190514A1, “PHENYLALKYL N-HYDROXYUREAS FOR TREATING LEUKOTRIENE RELATED PATHOLOGIES” (TALLIKUT PHARMACEUTICALS, INC., priority 2010, published 2013)

Key:
[1] = system: leukotriene B4 (LTB4); test: Ex vivo LTB4 in blood by ELISA, Phase 2 ACS study; parameters: species or system human; details: trough drug levels
Method: (§1) In this randomized, placebo-controlled study, 191 patients were randomized 3 weeks after an acute coronary syndrome (ACS) to receive 25, 50, or 100 mg N-[3-[5-[(4-fluorophenyl)methyl]-2-thienyl]-1-methyl-2-propynyl]-N-hydroxyurea or placebo qd for 12 weeks. Baseline assessments were performed at the start of treatment and these baseline results were compared with repeat assessments during various follow-up periods during the treatment study. A subset of 93 patients who had undergone a Multidetector (64 slice coronary) Computerized Tomography (MDCT) examination at baseline continued on study medication for a total of 24 weeks and underwent a repeat scan. Patients received a single daily oral dose of 25 mg, 50 mg, or 100 mg of N-[3-[5-[(4-fluorophenyl)methyl]-2-thienyl]-1-methyl-2-propynyl]-N-hydroxyurea or matching placebo by administering 2 capsules as prepared in Example 3 for 12 weeks or 24 weeks. Blood samples for measurement of ex vivo leukotriene B4 (LTB4) and high sensitivity C reactive protein (hsCRP), and urine samples for measurement of urinary leukotriene E4 (LTE4) levels were collected pre-dose on weeks 2, 6 and 12. Blood samples were assayed for ex vivo LTB4 by enzyme-linked immunosorbent assay, and for hsCRP by an immunoturbidimetric method. Urine samples were assayed for LTE4 using Liquid Chromatography with Tandem Mass Spectrometry (LC/MS/MS).

[2] = system: leukotriene E4 (LTE4); test: Urinary LTE4 by LC/MS/MS, Phase 2 ACS study; format: in vivo, human; details: all doses (25, 50, 100 mg qd)
Method: as §1

[3] = system: high sensitivity C reactive protein (hsCRP); test: hsCRP in blood by immunoturbidimetric method, Phase 2 ACS study; format: in vivo, human
Method: as §1

[4] = system: non-calcified plaque; test: Coronary plaque by MDCT (64-slice CT), Phase 2 ACS study, 24-week substudy; format: in vivo, human; details: all three doses, serial MDCT images at 24 weeks
Method: In this randomized, placebo-controlled study, 191 patients were randomized 3 weeks after an acute coronary syndrome (ACS) to receive 25, 50, or 100 mg N-[3-[5-[(4-fluorophenyl)methyl]-2-thienyl]-1-methyl-2-propynyl]-N-hydroxyurea or placebo qd for 12 weeks. Baseline assessments were performed at the start of treatment and these baseline results were compared with repeat assessments during various follow-up periods during the treatment study. A subset of 93 patients who had undergone a Multidetector (64 slice coronary) Computerized Tomography (MDCT) examination at baseline continued on study medication for a total of 24 weeks and underwent a repeat scan. For those patients who continued on study medication for a total of 24 weeks, contrast-enhanced CT examination was performed at baseline and after 24 weeks of treatment with a 64-slice scanner (GE LightSpeed VCT; GE Healthcare, USA). Target plaque lesions were defined prospectively as non-calcified plaque with measurable low-density components of <60 HU situated in the proximal or middle portion of either the left main, left anterior ascending, left circumflex or right coronary artery causing at least 20% luminal stenosis. Prior to analysis of results, patients had their MDCT examinations evaluated twice by the same reviewer and also by a second reviewer for evaluation of intraobserver and interobserver variability of measurements.

[5] = system: inflammatory genes, including IL-6, IL 8, IL-10, MMP9, I-kappa-B, osteopontin; test: Inflammatory gene expression in carotid plaques (TaqMan), Phase 2 CEA study; format: in vivo, human; details: rupture-prone plaque subtypes, 100 mg qd oral, 12 weeks
Method: In this randomized, double blind, placebo-controlled study, 50 patients with significant carotid artery stenosis (60-90%) were treated once daily for 12 weeks with orally administered 100 mg N-[3-[5-[(4-fluorophenyl)methyl]-2-thienyl]-1-methyl-2-propynyl]-N-hydroxyurea or placebo prior to undergoing CEA, at which time endarterectomy tissue (plaque) was collected and stored for subsequent tissue analysis. Baseline assessments are performed at the start of treatment and these baseline results were compared with repeat assessments during various follow-up periods of treatment. The treatment was conducted for twelve weeks at which time these baseline assessments were performed and compared.
At the end of 12 weeks treatment with 100 mg of N-[3-[5-[(4-fluorophenyl)methyl]-2-thienyl]-1-methyl-2-propynyl]-N-hydroxyurea, patients underwent CEA, at which time endarterectomy tissue (plaque) was collected, fixed in 10% formalin and paraffin blocks, and stored for subsequent tissue analysis. […] A portion of each of the plaques was also analyzed for inflammatory gene expression after isolation of total RNA and reverse transcription using a TaqMan® High Capacity cDNA assay.
LTB4, LTE4 and hsCRP biomarker data were assessed using change from baseline comparisons and an ANCOVA was used to compare the treatment groups where the covariate was the baseline value of the outcome measure. […]

Compound: CC(C#Cc1ccc(Cc2ccc(F)cc2)s1)N(O)C(N)=O (centres unmarked) [VIA-2291, N-[3-[5-[(4-fluorophenyl)methyl]-2-thienyl]-1-methyl-2-propynyl]-N-hydroxyurea]
- inhibition of ex vivo LTB4 ([1]; 100-mg group, in >90% of patients): approximately 80%
- ex vivo leukotriene LTB4 ([1]; all doses (25, 50, 100 mg qd), P<0.0001, dose-dependent): significantly reduced
- urinary leukotriene LTE4 [2]: significantly reduced
- hsCRP within group between 12 and 24 weeks ([3]; 100 mg group, P<0.01): significant reduction
- decrease in hsCRP compared with placebo ([3]; 100-mg group at 24 weeks, P=0.0002): 67%
- new plaque lesions compared with placebo [4]: reduced
- non-calcified plaque volume compared with placebo [4]: reduced
- expression of inflammatory genes, including IL-6, IL 8, IL-10, MMP9, I-kappa-B, osteopontin [5]: reduction in expression
